Reference: PubChem BioAssay AID248 (DTP/NCI, 2004)
Toxic doses and inconclusive results are not listed. No stated cut-off is given here; in the data, active means T/C of 150% or more; inactive means T/C below 125%. Peptide text beside a SMILES is read from it. * marks the point of attachment. Cbz = O=C(OCc1ccccc1)*; Bn = c1ccc(C*)cc1

Tested on: L1210 leukemia ip in BDF1 mice, survival T/C
Assay: NCI In Vivo Anticancer Drug Screen. Data for tumor model L1210 Leukemia (intraperitoneal) in B6D2F1 (BDF1) mice
Conditions: endpoint: mean survival time, higher = longer survival
How it was run: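 Antitumor effect is assessed in tumor-bearing animals. Survival in the compound arm is compared with a vehicle-dosed control arm and expressed as their quotient.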

[1] = dose: 50.0 mg/kg/injection, schedule: Q01DX009 (ip), vehicle: Klucel (hydroxypropylcellulose) (HPC)
[2] = dose: 100.0 mg/kg/injection, schedule: Q01DX009 (ip), vehicle: Klucel (hydroxypropylcellulose) (HPC)
[3] = dose: 200.0 mg/kg/injection, schedule: Q01DX009 (ip), vehicle: Klucel (hydroxypropylcellulose) (HPC)
[4] = dose: 100.0 mg/kg/injection, schedule: Q01DX001 (ip), vehicle: other
[5] = dose: 200.0 mg/kg/injection, schedule: Q01DX001 (ip), vehicle: other
[6] = dose: 400.0 mg/kg/injection, schedule: Q01DX001 (ip), vehicle: other
[7] = dose: 100.0 mg/kg/injection, schedule: Q01DX009 (ip), vehicle: saline
[8] = dose: 200.0 mg/kg/injection, schedule: Q01DX009 (ip), vehicle: saline
[9] = dose: 100.0 mg/kg/injection, schedule: Q04DX003 (ip), vehicle: Klucel (hydroxypropylcellulose) (HPC)
[10] = dose: 200.0 mg/kg/injection, schedule: Q04DX003 (ip), vehicle: Klucel (hydroxypropylcellulose) (HPC)
[11] = dose: 400.0 mg/kg/injection, schedule: Q01DX009 (ip), vehicle: Klucel (hydroxypropylcellulose) (HPC)
[12] = dose: 400.0 mg/kg/injection, schedule: Q04DX003 (ip), vehicle: Klucel (hydroxypropylcellulose) (HPC)
[13] = dose: 100.0 mg/kg/injection, schedule: Q01DX001 (ip), vehicle: carboxymethylcellulose (CMC)
[14] = dose: 200.0 mg/kg/injection, schedule: Q01DX001 (ip), vehicle: carboxymethylcellulose (CMC)
[15] = dose: 100.0 mg/kg/injection, schedule: Q01DX001 (ip), vehicle: saline
[16] = dose: 200.0 mg/kg/injection, schedule: Q01DX001 (ip), vehicle: saline
[17] = dose: 400.0 mg/kg/injection, schedule: Q01DX001 (ip), vehicle: saline
[18] = dose: 400.0 mg/kg/injection, schedule: Q01DX009 (ip), vehicle: saline

Measured: T/C

O=C(NC(CSCc1ccccc1)C(=O)NC(Cc1ccc(O)cc1)C(=O)O)OCc1ccccc1 (stereo not drawn) (Cbz-Cys(Bn)-Tyr-OH; configuration not given here)
inactive: dose: 100.0 mg/kg/injection, schedule: Q01DX009 (ip), vehicle: gum acacia 95 % of control | dose: 100.0 mg/kg/injection, schedule: Q04DX003 (ip), vehicle: gum acacia 103 % of control | dose: 200.0 mg/kg/injection, schedule: Q01DX009 (ip), vehicle: gum acacia 95 % of control | dose: 200.0 mg/kg/injection, schedule: Q04DX003 (ip), vehicle: gum acacia 103 % of control | dose: 400.0 mg/kg/injection, schedule: Q01DX009 (ip), vehicle: gum acacia 89 % of control | dose: 400.0 mg/kg/injection, schedule: Q04DX003 (ip), vehicle: gum acacia 92 % of control

O=C(Nc1cccc(C(=O)O)c1)Nc1ccccc1F
inactive: [1] 93 % of control | [2] 107 % of control | [3] 93 % of control

COc1ccc(COc2ccc(Cl)cc2)cc1OC
inactive: dose: 100.0 mg/kg/injection, schedule: Q04DX003 (ip), vehicle: saline with Tween-80 109 % of control | dose: 200.0 mg/kg/injection, schedule: Q04DX003 (ip), vehicle: saline with Tween-80 98 % of control | dose: 400.0 mg/kg/injection, schedule: Q04DX003 (ip), vehicle: saline with Tween-80 101 % of control

CN(C)S(=O)(=O)c1ccc(NC(=O)CCl)cc1
inactive: [4] 98 % of control | dose: 100.0 mg/kg/injection, schedule: Q01DX009 (ip), vehicle: saline with Tween-80 106 % of control | dose: 100.0 mg/kg/injection, schedule: Q04DX003 (ip), vehicle: other 97 % of control | [5] 110 % of control | dose: 200.0 mg/kg/injection, schedule: Q01DX009 (ip), vehicle: saline with Tween-80 102 % of control | dose: 200.0 mg/kg/injection, schedule: Q04DX003 (ip), vehicle: other 103 % of control | [6] 93 % of control | dose: 400.0 mg/kg/injection, schedule: Q01DX009 (ip), vehicle: saline with Tween-80 100 % of control | dose: 400.0 mg/kg/injection, schedule: Q04DX003 (ip), vehicle: other 98 % of control

COC1CC(OC2OC(CO)C(O)C(O)C2O)/C(=C\C#N)C(O)C1OC (stereo not drawn)
inactive: dose: 50.0 mg/kg/injection, schedule: Q01DX009 (ip), vehicle: saline 106 % of control | dose: 50.0 mg/kg/injection, schedule: Q04DX003 (ip), vehicle: saline 103 % of control | [7] 103 % of control | dose: 100.0 mg/kg/injection, schedule: Q04DX003 (ip), vehicle: saline 100 % of control | [8] 101 % of control | dose: 200.0 mg/kg/injection, schedule: Q04DX003 (ip), vehicle: saline 101 % of control

CC(C)(COC(=O)c1ccccc1)COC(=O)c1ccccc1
inactive: [2] 116 % of control | [9] 96 % of control | [3] 93 % of control | [10] 107 % of control | [11] 93 % of control | [12] 98 % of control

CC1(C)Cc2cccc(OC(=O)NO)c2O1
inactive: dose: 12.5 mg/kg/injection, schedule: Q01DX001 (ip), vehicle: Klucel (hydroxypropylcellulose) (HPC) 100 % of control | dose: 25.0 mg/kg/injection, schedule: Q01DX001 (ip), vehicle: Klucel (hydroxypropylcellulose) (HPC) 96 % of control | dose: 50.0 mg/kg/injection, schedule: Q01DX001 (ip), vehicle: Klucel (hydroxypropylcellulose) (HPC) 96 % of control

NC(C(=O)O)C1SCCS1 (stereo not drawn)
inactive: [13] 102 % of control | [14] 102 % of control | dose: 400.0 mg/kg/injection, schedule: Q01DX001 (ip), vehicle: carboxymethylcellulose (CMC) 98 % of control

COc1cc2c(cc1NC(C)=O)C(=O)CCCC2
inactive: dose: 50.0 mg/kg/injection, schedule: Q01DX009 (ip), vehicle: other 92 % of control | dose: 100.0 mg/kg/injection, schedule: Q01DX009 (ip), vehicle: other 95 % of control | dose: 200.0 mg/kg/injection, schedule: Q01DX009 (ip), vehicle: other 92 % of control

Cc1c2c(c(C)c3ccncc13)S(=O)(=O)c1ccccc1-2
inactive: dose: 75.0 mg/kg/injection, schedule: Q01DX001 (ip), vehicle: other 95 % of control | dose: 150.0 mg/kg/injection, schedule: Q01DX001 (ip), vehicle: other 93 % of control | dose: 300.0 mg/kg/injection, schedule: Q01DX001 (ip), vehicle: other 93 % of control

c1ccc(SCCCCSc2ccccc2)cc1
inactive: dose: 75.0 mg/kg/injection, schedule: Q01DX009 (ip), vehicle: saline 107 % of control | dose: 75.0 mg/kg/injection, schedule: Q04DX003 (ip), vehicle: saline 95 % of control | dose: 150.0 mg/kg/injection, schedule: Q01DX009 (ip), vehicle: saline 90 % of control | dose: 150.0 mg/kg/injection, schedule: Q04DX003 (ip), vehicle: saline 100 % of control | dose: 300.0 mg/kg/injection, schedule: Q01DX009 (ip), vehicle: saline 93 % of control | dose: 300.0 mg/kg/injection, schedule: Q04DX003 (ip), vehicle: saline 97 % of control

CCCCCCCCCCCCOP(=O)(OCCCCCCCCCCCC)c1ccccc1
inactive: dose: 50.0 mg/kg/injection, schedule: Q01DX001 (ip), vehicle: saline 100 % of control | [15] 97 % of control | [16] 94 % of control | [17] 91 % of control

CCCCCCCCCC=C(c1cccc2ccccc12)c1cccc2ccccc12
inactive: [4] 93 % of control | [5] 96 % of control | [6] 102 % of control

O=c1[nH]nnc2c1cnn2-c1ccccc1
inactive: [13] 101 % of control | [14] 97 % of control

CC(C)(O)C#CC(C)(C)O
inactive: [7] 115 % of control | [8] 110 % of control | [18] 110 % of control

CCOC(=O)CC(C)NC1CCCCC1 (stereo not drawn)
inactive: dose: 100.0 mg/kg/injection, schedule: Q01DX Z (ip), vehicle: methylcellulose (MC) 92 % of control | dose: 200.0 mg/kg/injection, schedule: Q01DX Z (ip), vehicle: methylcellulose (MC) 92 % of control

CC(=O)Oc1cccc(OC(=O)Nc2ccc(C)c(NC(=O)Oc3cccc(OC(C)=O)c3)c2)c1
inactive: [2] 93 % of control | [3] 96 % of control | [11] 94 % of control

CC(=O)Nc1ccc2c(c1)Cc1cccc(NC(C)=O)c1-2
inactive: dose: 25.0 mg/kg/injection, schedule: Q01DX009 (ip), vehicle: Klucel (hydroxypropylcellulose) (HPC) 95 % of control | [1] 103 % of control | [2] 103 % of control

c1cc[n+](CC[n+]2ccccc2)cc1
inactive: [15] 97 % of control | [2] 100 % of control | [7] 101 % of control | [9] 107 % of control | [16] 103 % of control | [3] 103 % of control | [8] 93 % of control | [10] 101 % of control | [17] 94 % of control | [11] 91 % of control | [18] 90 % of control | [12] 98 % of control
